Measured values: patent US8110570B2, “Modulators of acetyl-coenzyme A carboxylase and methods of use thereof” (Cropsolution, Inc., priority 2008, dated 2012)

Tests used:
hACC1 = target: T1, hACC1 (Homo sapiens, UniProt Q13085); assay: [14C]bicarbonate incorporation assay, overall ACC activity; type: biochemical; details: recombinant hACC1, overall ACC activity
T1 construct: PCR primers were designed for full-length hACC1 and hACC2 using GenBank submissions AY237919 and AJ575592, respectively; His tag (C); made in house; host or cells: baculovirus, Sf9 insect cells
Procedure: (§1) In vitro IC50 values of human ACC were determined using recombinant enzyme produced by standard procedures. For example, full-length cDNAs for both the human isoforms (hACC1 and hACC2) were each cloned and expressed as a recombinant protein using a baculovirus system. Double stranded cDNA from human fetal liver (Quick-Clone cDNA, cat. #7171-1) was purchased from BD/Clontech (Mt. View, Calif.). PCR primers were designed for full-length hACC1 and hACC2 using GenBank submissions AY237919 and AJ575592, respectively. The Advantage GC 2 PCR kit (BD/Clontech) was used for amplification. The PCR products (about 7 Kb) were TOPO-cloned into the pCR4Blunt vector (Invitrogen, Carlsbad, Calif.), and 6 clones of each gene were isolated. […] Full length versions of the two cDNAs corresponding to their respective Genbank sequences were assembled in pBluescript SK+ (Stratagene, La Jolla, Calif.) by combining error-free fragments from the PCR clones. The resulting hACC1 clone, designated pCS35, has six silent nucleotide differences compared to Genbank accession AY237919. The final hACC2 clone, designated pCS36, has ten silent nucleotide differences compared to Genbank accession AJ575592. Primers were designed to PCR amplify the cDNAs along with the in-frame 3′-his tag sequences from the pET vector and TOPO-cloned the resulting products into the Gateway® entry vector pENTR/D-TOPO. The ACC2 primers were designed to delete amino acids 1-148 and add Met-Gly in front of Lys149 in the final product. The resulting entry clones were transferred to BaculoDirect™ linear DNA (Invitrogen corp.) using the Gateway® LR recombination reaction. The recombinant baculovirus DNA was transfected into insect cells and viral amplification was performed according to the manufacturer's protocols. For protein expression sf9 cells were infected with a P3 viral stock in the presence of 50 uM biotin. The cells were harvested after 48-72 hr, lysed by sonication, and the resulting extract was clarified by centrifugation. ACC in the crude extract was concentrated by ammonium sulfate precipitation (40% w/v) and purified by Ni^2+-NTA chromatography (Novagen) followed by anion exchange chromatography on a UNO-Q column (BioRad).
(§2) Overall ACC activity in the hACC preparations is measured by following incorporation of [^14C]bicarbonate into […] essentially as described (Thumpy and Wakil, J Biol Chem 260, 6318-6323 (1985). Briefly, the reaction mixture (50 μL) contains: 50 mM Hepes (pH7.4), 20 mM K-Citrate, 20 mM Mg-Acetate 1.5 mM MgSO4, 2 mM DTT, 2 mM acetyl-CoA, 12 mM NaHCO3, 0.2 mM NaH^14CO3 (˜50 mCi/mmol), 0.01% (v/v) Triton X-100, 0.75 mg/mL BSA, 1% (v/v) DMSO (with or without inhibitor), and 0.3 μg (hACC1) or 0.15 μg (hACC2) enzyme. Reactions are initiated by the addition of ATP to a final concentration 2 mM. After 10 minutes at 37° C., the reaction is stopped by the addition of 2N HCl (50 μL). The samples are evaporated in a hood overnight, resuspended in H2O (200 μL), and incorporated label is quantified by scintillation counting in scintillation cocktail (3 mL). Inhibition data are fit to dose-response curves and IC50 values are reported (i.e. the concentration of inhibitor that gives 50% inhibition).

hACC2 = target: T2, hACC2 (Homo sapiens, UniProt O00763); assay: as above; type: biochemical; details: recombinant hACC2, overall ACC activity
T2 construct: delete amino acids 1-148 and add Met-Gly in front of Lys149 in the final product; His tag (C); made in house; host or cells: baculovirus, Sf9 insect cells
T2 sequence (O00763 149-2458 limits assumed): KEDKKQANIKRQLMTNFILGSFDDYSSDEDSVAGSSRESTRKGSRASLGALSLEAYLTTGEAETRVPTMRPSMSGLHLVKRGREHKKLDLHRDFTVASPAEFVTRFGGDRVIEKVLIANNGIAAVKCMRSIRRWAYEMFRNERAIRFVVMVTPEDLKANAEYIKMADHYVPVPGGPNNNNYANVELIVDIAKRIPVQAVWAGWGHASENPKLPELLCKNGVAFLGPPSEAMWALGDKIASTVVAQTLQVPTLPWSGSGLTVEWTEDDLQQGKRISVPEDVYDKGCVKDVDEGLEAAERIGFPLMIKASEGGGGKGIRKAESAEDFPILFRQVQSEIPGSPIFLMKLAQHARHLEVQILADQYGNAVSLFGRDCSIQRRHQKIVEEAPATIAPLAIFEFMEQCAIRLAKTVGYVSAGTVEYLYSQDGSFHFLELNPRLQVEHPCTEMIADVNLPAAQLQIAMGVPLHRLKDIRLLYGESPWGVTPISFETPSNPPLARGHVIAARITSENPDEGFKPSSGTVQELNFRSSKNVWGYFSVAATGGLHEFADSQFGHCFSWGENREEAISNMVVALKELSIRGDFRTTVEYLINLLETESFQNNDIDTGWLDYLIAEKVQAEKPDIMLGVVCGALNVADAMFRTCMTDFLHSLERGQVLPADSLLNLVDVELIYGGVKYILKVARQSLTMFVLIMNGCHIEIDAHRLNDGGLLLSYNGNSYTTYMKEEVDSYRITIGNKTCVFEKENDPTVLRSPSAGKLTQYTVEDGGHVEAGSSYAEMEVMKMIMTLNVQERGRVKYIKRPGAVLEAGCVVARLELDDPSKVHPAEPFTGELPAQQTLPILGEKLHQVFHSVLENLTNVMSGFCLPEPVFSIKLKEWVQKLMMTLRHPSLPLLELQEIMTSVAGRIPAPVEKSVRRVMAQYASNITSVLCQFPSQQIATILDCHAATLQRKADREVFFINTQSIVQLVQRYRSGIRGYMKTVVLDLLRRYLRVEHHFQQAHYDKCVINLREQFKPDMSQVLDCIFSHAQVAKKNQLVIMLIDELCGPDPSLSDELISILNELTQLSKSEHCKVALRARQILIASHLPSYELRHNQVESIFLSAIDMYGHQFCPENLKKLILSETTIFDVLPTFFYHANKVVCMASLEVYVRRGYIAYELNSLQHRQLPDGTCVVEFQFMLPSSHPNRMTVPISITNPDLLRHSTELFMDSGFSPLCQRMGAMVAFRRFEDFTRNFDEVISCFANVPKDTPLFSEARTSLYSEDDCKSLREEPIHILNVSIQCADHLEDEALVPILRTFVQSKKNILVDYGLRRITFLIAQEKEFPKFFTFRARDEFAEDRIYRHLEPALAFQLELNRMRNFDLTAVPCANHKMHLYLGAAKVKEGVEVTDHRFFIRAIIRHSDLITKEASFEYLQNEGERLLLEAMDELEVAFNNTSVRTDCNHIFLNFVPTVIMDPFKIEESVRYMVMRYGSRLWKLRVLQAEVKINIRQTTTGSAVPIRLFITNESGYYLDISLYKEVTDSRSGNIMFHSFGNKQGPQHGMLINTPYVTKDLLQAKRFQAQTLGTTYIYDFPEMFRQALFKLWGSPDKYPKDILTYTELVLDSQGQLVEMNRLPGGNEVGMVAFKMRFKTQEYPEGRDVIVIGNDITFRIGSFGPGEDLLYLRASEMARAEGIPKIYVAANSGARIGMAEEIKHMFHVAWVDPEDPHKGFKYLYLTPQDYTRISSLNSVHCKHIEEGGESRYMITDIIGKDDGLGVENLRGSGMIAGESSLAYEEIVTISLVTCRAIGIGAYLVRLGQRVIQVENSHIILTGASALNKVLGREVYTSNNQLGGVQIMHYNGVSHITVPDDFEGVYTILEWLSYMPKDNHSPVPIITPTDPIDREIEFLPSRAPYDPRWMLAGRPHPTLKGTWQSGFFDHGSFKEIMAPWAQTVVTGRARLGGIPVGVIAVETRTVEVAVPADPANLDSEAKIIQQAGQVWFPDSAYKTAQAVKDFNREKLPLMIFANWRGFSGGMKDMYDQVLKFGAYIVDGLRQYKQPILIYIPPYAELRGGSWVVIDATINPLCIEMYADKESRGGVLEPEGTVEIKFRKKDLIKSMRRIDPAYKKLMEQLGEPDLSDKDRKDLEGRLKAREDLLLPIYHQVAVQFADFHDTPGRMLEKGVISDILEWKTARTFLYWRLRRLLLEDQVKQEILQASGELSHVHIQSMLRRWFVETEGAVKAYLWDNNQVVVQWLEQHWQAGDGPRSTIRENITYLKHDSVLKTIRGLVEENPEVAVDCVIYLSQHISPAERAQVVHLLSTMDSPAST
Procedure: as §1, §2

[1] = target: uACC (Ustilago maydis ACC) (Ustilago maydis, UniProt A0A0D1DYD5); assay: as above; type: biochemical
Chain of uACC (Ustilago maydis ACC) (A0A0D1DYD5 entry or part of it): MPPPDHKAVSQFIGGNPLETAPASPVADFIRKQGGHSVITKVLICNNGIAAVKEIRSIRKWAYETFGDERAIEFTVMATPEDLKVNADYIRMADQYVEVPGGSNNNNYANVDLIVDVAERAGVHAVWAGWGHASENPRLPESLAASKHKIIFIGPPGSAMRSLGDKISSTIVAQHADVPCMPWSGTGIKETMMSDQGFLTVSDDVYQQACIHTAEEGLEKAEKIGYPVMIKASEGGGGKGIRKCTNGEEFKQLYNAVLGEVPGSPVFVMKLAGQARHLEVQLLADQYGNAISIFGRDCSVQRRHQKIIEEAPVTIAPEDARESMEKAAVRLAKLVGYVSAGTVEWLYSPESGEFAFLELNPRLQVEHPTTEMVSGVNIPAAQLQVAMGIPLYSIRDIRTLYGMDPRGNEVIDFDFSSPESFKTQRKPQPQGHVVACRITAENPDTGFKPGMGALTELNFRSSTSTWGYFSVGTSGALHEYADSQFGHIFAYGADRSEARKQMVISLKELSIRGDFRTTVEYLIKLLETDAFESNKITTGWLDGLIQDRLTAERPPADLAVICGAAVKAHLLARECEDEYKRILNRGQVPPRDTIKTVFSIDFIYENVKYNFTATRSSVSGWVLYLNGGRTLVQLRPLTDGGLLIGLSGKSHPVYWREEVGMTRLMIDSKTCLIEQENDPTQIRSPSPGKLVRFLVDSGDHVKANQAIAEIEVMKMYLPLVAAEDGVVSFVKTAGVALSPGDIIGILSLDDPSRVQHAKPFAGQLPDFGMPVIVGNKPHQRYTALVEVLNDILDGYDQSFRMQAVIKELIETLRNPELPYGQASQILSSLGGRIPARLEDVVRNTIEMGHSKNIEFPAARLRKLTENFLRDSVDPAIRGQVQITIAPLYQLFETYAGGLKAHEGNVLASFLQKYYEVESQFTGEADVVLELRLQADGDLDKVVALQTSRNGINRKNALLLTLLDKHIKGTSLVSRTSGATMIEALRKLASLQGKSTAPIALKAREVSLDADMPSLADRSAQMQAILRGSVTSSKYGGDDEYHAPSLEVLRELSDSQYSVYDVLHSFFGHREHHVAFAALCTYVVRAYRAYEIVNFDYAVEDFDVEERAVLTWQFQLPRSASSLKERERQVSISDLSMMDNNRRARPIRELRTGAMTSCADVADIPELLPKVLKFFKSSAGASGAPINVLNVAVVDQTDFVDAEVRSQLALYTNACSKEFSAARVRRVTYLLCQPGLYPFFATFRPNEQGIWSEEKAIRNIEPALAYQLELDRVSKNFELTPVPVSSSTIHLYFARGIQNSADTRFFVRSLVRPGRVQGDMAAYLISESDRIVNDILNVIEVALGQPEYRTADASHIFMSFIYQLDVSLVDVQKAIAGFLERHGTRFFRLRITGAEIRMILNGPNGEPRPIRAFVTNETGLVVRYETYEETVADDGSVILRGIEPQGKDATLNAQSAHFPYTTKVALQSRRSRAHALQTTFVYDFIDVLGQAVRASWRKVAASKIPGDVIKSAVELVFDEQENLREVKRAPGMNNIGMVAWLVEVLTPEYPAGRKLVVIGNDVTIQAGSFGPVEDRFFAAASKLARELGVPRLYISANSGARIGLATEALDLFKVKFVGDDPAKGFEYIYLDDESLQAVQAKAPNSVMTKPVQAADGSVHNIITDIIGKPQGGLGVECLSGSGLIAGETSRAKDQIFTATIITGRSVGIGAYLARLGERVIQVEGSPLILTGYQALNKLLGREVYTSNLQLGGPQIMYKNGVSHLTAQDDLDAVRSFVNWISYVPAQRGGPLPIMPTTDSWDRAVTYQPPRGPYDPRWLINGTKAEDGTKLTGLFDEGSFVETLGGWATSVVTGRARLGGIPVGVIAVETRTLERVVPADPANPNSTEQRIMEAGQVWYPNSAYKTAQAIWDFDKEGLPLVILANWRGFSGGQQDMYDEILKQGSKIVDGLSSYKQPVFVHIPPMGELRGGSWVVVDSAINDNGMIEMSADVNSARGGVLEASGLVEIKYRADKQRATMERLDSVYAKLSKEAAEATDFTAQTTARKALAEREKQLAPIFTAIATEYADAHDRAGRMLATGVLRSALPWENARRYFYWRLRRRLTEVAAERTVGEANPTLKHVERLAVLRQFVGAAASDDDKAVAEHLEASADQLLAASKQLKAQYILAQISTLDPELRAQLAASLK

[2] = system: A2780 human ovary cancer cells; assay: MTT Cell Proliferation Assay; type: cell-based; details: 72 hours, read-out: Percent of Control A2780
Procedure: (§3) The anti-proliferative activity of test compounds against human tumor cell lines is evaluated in vitro using the ATCC's MTT Cell Proliferation Assay (Catalog No. 30-100K). Cell lines are grown using media, serum, and culture conditions recommended by the ATCC. Stock cultures are allowed to grow to 70-80% confluence. Cells are seeded into 96-well culture plates at a predetermined density on day 0 in complete medium (0.1 mL). Plates are placed in a humidified incubator at 37° C. with 5% CO2 and 95% HEPA filtered room air for 24 hours. At this point compound (0.1 mL of 2× stock (in media)) is added to the indicated wells and the plates are returned to the incubator for 72 hours. Cell proliferation is measured by addition of MTT reagent to each well and incubated for an additional 4 hours, followed by addition of cell lysis/MTT solublization reagent and incubating overnight. […] Results are expressed as percent of control cells versus compound concentration. Compounds of the present invention, and salts thereof, were evaluated for anti-proliferative activity as described above.

[3] = system: HCT-116 human colon cancer cells; assay: MTT Cell Proliferation Assay; type: cell-based; details: 72 hours, read-out: Percent of Control HCT-116
Procedure: as §3

[4] = system: MDA-MB-231 human breast cancer cells; assay: MTT Cell Proliferation Assay; type: cell-based; details: 72 hours, read-out: Percent of Control MDA-MB-231
Procedure: as §3

[5] = system: PC-3 human prostate cancer cells; assay: MTT Cell Proliferation Assay; type: cell-based; details: 72 hours, read-out: Percent of Control PC-3
Procedure: as §3

Structure (SMILES) | IC50 (hACC1) | IC50 (hACC2) | IC50 [1] | activity at 3.3 µM [2] | activity at 10 µM [2] | activity at 3.3 µM [3] | activity at 10 µM [3] | activity at 3.3 µM [4] | activity at 10 µM [4] | activity at 3.3 µM [5] | activity at 10 µM [5]
O=C1NC2(CCN(C(=O)c3sc4ccccc4c3Cl)CC2)Oc2ccc(Br)cc21 [Compound 1, 6-Bromo-1′-[(3-chlorobenzothien-2-yl)carbonyl]spiro[2H-1,3-benzoxazine-2,4′-piperidine]-4(3H)-one] | 6000 nM | 5400 nM | 160000 nM | – | – | – | – | – | – | – | –
COc1cc2c(OC)cccc2cc1C(=O)N1CCC2(CC1)NC(=O)c1cc(Br)ccc1O2 [Compound 3, 6-Bromo-1′-[(3,5-dimethoxynaphth-2-yl)carbonyl]spiro[2H-1,3-benzoxazine-2,4′-piperidine]-4(3H)-one] | 860 nM | 290 nM | 90000 nM | – | – | – | – | – | – | – | –
Cc1nn(C)c2sc(C(=O)N3CCC4(CC3)NC(=O)c3cc(Br)ccc3O4)cc12 [Compound 4, 6-Bromo-1′-{(1,3-dimethyl-1H-thieno[2,3-c]pyrazol-5-yl)carbonyl} spiro[2H-1,3-benzoxazin-2,4′-piperidin]-4-(3H)-one] | 2800 nM | 2900 nM | 50000 nM | – | – | – | – | – | – | – | –
O=C1NC2(CCN(C(=O)c3cc4c(Cl)cccc4s3)CC2)Oc2ccc(Br)cc21 [Compound 5, 6-Bromo-1′-[(4-chlorobenzthien-2-yl)carbonyl]spiro[2H-1,3-benzoxazin-2,4′-piperidin]-4-(3H)-one] | 4500 nM | 2100 nM | > 135000 nM | – | – | – | – | – | – | – | –
COc1cc(C(=O)N2CCC3(CC2)NC(=O)c2cc(Br)ccc2O3)cc2c(OC)cccc12 [Compound 30, 6-Bromo-1′-[(4,8-dimethoxynaphth-2-yl)carbonyl]spiro[2H-1,3-benzoxazin-2,4′-piperidin]-4-(3H)-one] | 16 nM | 17 nM | 20000 nM | – | – | – | – | – | – | – | –
COc1cc(C(=O)N2CCC3(CC2)NC(=O)c2cc(NC(C)=O)ccc2O3)nc2c(C3CC3)cccc12 [Compound 33] | 73 nM | 51 nM | 19300 nM | – | – | – | – | – | – | – | –
COc1ccc(-c2cc(C(=O)N3CCC4(CC3)NC(=O)c3ccccc3O4)n[nH]2)cc1 [Compound 87, 1′-[5-(4-Methoxyphenyl)-1(H)-pyrazol-3-ylcarbonyl]spiro[2H-1,3-benzoxazin-2,4′-piperidin]-4-(3H)-one] | 9700 nM | 12000 nM | 220000 nM | – | – | – | – | – | – | – | –
CCOc1ccc2c(c1)C(=O)NC1(CCN(C(=O)c3cc(OC)c4cccc(OC)c4n3)CC1)O2 [Compound 139] | 50 nM | 33 nM | 20000 nM | 85.9% | 60.1% | 68.4% | 49.9% | 70.3% | 46.4% | 57% | 54.7%
COc1cc(C(=O)N2CCC3(CC2)NC(=O)c2cc(C)ccc2O3)cc2c(OC)cccc12 [Compound 145, 1′-[(4,8-Dimethoxynaphth-2-yl)carbonyl]-6-methylspiro[2H-1,3-benzoxazin-2,4′-piperidin]-4-(3H)-one] | 11 nM | 7 nM | 5200 nM | – | – | – | – | – | – | – | –
CCOc1ccc2c(c1)C(=O)NC1(CCN(C(=O)c3cc(OC)c4cccc(OC)c4c3)CC1)O2 [Compound 146, 1′-[(4,8-Dimethoxynaphth-2-yl)carbonyl]-6-ethoxyspiro[2H-1,3-benzoxazin-2,4′-piperidin]-4-(3H)-one] | 5 nM | 4 nM | 3000 nM | – | – | – | – | – | – | – | –
COc1cccc2c(C)c(C(=O)N3CCC4(CC3)NC(=O)c3cc(OC(C)C)ccc3O4)[nH]c12 [Compound 180] | 36 nM | 42 nM | – | 79.4% | 21.2% | 52.6% | 29.8% | 68.7% | 9.3% | 79.5% | 56.8%
COc1ccc(OC)c2[nH]c(C(=O)N3CCC4(CC3)NC(=O)c3cc(OC(C)C)ccc3O4)cc12 [Compound 184] | 480 nM | 400 nM | – | 90% | 44.7% | 65.5% | 40.4% | 75.8% | 46.1% | 81.3% | 64.6%
COC(=O)c1ccc2c(c1)C(=O)NC1(CCN(C(=O)c3cc(OC)c4cccc(OC)c4n3)CC1)O2 [Compound 201] | 20 nM | 18 nM | – | 83.2% | 46.4% | 59.8% | 46.8% | 82.5% | 61.5% | 52.7% | 37.1%
